Assay results: ChEMBL document CHEMBL1201862, “PubChem BioAssay data set” (2004)
Values belong to the compound of their own block, whether it stands above or below them. Activity calls are given as the source filed them.

How the values were obtained:
[1] = human cervical cancer cell viability loss – 24 h, plate reader, dry powder, cytotoxicity control, dose response (AID 686928); type: functional, cell-based; conditions: HeLa
A549 = assay: viability loss in A549 cells – cell-based, plate reader, cherry-pick samples, cytotoxicity control, dose response (AID 687028); type: functional; conditions: Homo sapiens
[2] = HGIII-sPLA2 enzyme inhibition potency – biochemical, QFRET, IC50, dose response (AID 743457);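 also: green fluorescence rise as the enzyme cleaves BODIPY PC-A2 in liposomes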
[3] = biological target: T1, Corticotropin-releasing factor receptor 2/Corticotropin-releasing factor-binding protein (Homo sapiens, UniProt P24387+Q13324); assay: Dose Response confirmation of uHTS hits for small molecule antagonists of the CRF-binding protein and CRF-R2 receptor complex.; type: functional; conditions: read-out: IC50_Mean
T1 sequence (Q13324 whole entry): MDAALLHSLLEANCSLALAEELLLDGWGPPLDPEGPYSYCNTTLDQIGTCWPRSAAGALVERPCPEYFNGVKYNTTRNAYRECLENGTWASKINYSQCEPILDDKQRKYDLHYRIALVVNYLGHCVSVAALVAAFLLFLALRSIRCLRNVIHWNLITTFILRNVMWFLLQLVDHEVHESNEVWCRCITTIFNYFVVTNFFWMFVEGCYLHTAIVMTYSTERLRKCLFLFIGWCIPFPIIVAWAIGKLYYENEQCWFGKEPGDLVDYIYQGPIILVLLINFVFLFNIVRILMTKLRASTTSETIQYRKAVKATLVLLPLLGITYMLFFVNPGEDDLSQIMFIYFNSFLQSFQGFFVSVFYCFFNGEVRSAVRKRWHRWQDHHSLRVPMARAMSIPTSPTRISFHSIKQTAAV
T1 sequence (P24387 whole entry): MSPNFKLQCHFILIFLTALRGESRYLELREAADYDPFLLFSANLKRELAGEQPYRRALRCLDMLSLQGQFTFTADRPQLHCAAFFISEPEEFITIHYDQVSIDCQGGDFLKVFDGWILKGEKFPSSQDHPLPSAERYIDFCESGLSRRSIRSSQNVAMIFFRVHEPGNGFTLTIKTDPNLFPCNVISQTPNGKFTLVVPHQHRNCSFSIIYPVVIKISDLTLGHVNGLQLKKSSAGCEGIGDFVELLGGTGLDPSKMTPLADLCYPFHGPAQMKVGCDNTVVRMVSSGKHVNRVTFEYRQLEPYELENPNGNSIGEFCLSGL

[4] = blockers of CRF-binding protein–CRF-R2 complex – cell-based, uHTS hits, 384-well, dose response (AID 651639); type: functional, Homo sapiens; conditions: read-out: IC50_Mean
[5] = biological target: T1, Corticotropin-releasing factor receptor 2/Corticotropin-releasing factor-binding protein; assay: activators of CRF receptor 2 with binding protein – uHTS hits, confirmation (AID 602473); type: functional; conditions: read-out: EC50_Mean
[6] = Counterscreen for […] of the human trace amine associated receptor 1 (TAAR1): Fluorescence-based cell-based high throughput dose response assay to identify nonselective Ga16 agonists.; type: functional
[7] = Counterscreen for antagonists of the human trace amine associated receptor 1 (hTAAR1): Fluorescence-based cell-based high throughput dose response assay to identify nonselective Ga16 antagonists.; type: functional
[8] = biological target: T2, Trace amine-associated receptor 1 (Homo sapiens, UniProt Q96RJ0); assay: Counterscreen for antagonists of the human trace amine associated receptor 1 (hTAAR1): Fluorescence-based cell-based high throughput dose response assay to identify TAAR1 Agonists.; type: functional
T2 sequence (Q96RJ0 whole entry): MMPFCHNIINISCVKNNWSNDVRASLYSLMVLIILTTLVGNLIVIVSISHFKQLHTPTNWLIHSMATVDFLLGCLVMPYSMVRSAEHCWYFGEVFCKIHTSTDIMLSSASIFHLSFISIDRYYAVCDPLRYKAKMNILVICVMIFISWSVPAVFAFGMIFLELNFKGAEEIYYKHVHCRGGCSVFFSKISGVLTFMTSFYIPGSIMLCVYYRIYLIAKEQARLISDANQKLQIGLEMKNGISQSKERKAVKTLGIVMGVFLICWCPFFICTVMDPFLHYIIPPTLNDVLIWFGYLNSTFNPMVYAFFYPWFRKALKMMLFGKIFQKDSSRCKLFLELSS

[9] = biological target: T2, Trace amine-associated receptor 1; assay: Fluorescence-based cell-based high throughput dose response assay to identify antagonists of the human trace amine associated receptor 1 (TAAR1).; type: functional
[10] = NIH3T3 cell viability loss – ATP luminescence, mouse fibroblasts, counter-screen, dose response (AID 2010); type: functional, cell-based;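 also: cells exposed to compound for about 90 hours before reading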
[11] = Trypanosoma cruzi growth suppression in host cells – NIH3T3 host cells, beta-gal luminescence, confirmation (AID 2044); type: functional, cell-based;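 also: intracellular parasites grown in NIH/3T3 mouse fibroblasts as host cells; luminescent beta-galactosidase reporter signal from transgenic T. cruzi replicating inside host cells; inhibitors lower the luminescence signal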
[12] = viability loss in A549 lung cancer cells – cell-based, cherry-picks, […], cytotoxicity control, dose response (AID 1053119); type: functional
[13] = activation of miR-122 Renilla sensor silencing – cell-based, Huh7 psiCHECK-miR122, Renilla luciferase, cherry-picked, dose response (AID 651956); type: functional;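 also: huh7 hepatoma cells stably carrying a psiCHECK-2 miR-122 sensor plasmid; renilla luciferase signal reporting endogenous miR-122 activity after 48 h compound exposure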

SMILES: CC(C)(C)COC(=O)CSc1n[nH]c(=O)[nH]c1=O
AC50 [1]: > 76 µM (inactive)

SMILES: CCCCCCCCN1C(=O)[C@H](CC(=O)NCCC(C)C)C[C@@]2(C(=O)OCC)CCCC=C12
AC50 (A549): 21 µM (active)

IC50 [2]: > 122 µM (inactive)
SMILES: Cc1cccc(NC(=O)NNC(=O)c2ccc3ccccc3c2O)c1

IC50 [3]: 5.7 µM (active) | IC50 [4]: > 20 µM (inactive) | EC50 [5]: > 53 µM (inactive)
SMILES: COC(=O)C1=C/C=C\CN(C(c2ccccc2)c2ccccc2)/C=C\1C(=O)OC

SMILES: CN(CC(=O)Nc1cccc(F)c1)C(=O)c1ccccc1OCC(=O)Nc1cccc(C(F)(F)F)c1
EC50 [6]: > 29.9 µM (inactive) | IC50 [7]: 13.5 µM (inactive) | EC50 [8]: > 29.9 µM (inactive) | IC50 [9]: 6.89 µM (active) | EC50 [10]: > 60 µM (not active) | EC50 [11]: 0.775 µM (active)

SMILES: CN(C)C(=O)c1ccc(-c2ccc3c(c2)[C@H]2[C@H](CCN2C(=O)c2ccc(F)cc2)[C@H](CO)N3C)cc1
AC50 [12]: 43.6 µM (active)

SMILES: C[C@H](CO)N1C[C@H](C)[C@H](CN(C)CC2CCCCC2)OCCCC[C@H](C)Oc2ccc(NC(=O)Nc3cccc4ccccc34)cc2C1=O
AC50 [13]: 3.25 µM (active)
